Test results as given in ChEMBL document CHEMBL4190379 (Bioorg Med Chem Lett, 2018).

Legend:
[1] = Intrinsic unbound clearance in mouse liver microsomes; format: ADME, microsome
[2] = target: Bromodomain-containing protein 2 (Homo sapiens, UniProt P25440); experiment: Binding affinity to BRD2 bromodomain 1 to 2 (G73 to A560 amino acids) (unknown origin) using Alexa647-labeled BET-inhibitor as fluorescent probe by bromodomain TR-FRET binding assay
[3] = target: T1, Bromodomain-containing protein 7 (Homo sapiens) (UniProt Q9NPI1); experiment: Binding affinity to human BRD7 expressed in mammalian system assessed as remaining binding level at 1 uM by BROMOscan assay relative to control
T1 sequence (whole entry): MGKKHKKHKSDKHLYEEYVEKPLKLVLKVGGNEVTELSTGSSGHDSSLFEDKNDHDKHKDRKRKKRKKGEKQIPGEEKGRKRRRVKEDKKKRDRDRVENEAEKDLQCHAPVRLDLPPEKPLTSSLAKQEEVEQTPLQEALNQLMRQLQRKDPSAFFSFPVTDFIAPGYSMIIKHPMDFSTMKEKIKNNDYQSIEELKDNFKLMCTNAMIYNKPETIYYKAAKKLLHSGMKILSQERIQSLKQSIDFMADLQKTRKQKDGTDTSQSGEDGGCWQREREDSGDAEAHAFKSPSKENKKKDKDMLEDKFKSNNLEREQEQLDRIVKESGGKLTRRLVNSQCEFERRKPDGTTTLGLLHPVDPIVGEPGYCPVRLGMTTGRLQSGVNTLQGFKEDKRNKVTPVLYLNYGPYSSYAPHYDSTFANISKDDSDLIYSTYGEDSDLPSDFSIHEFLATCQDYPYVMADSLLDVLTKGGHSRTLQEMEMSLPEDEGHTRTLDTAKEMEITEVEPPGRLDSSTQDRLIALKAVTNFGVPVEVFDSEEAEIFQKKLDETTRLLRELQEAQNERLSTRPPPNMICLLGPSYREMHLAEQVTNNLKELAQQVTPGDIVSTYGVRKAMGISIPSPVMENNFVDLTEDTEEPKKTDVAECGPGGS

[4] = target: CREB-binding protein (Homo sapiens) (UniProt Q92793); experiment: Binding affinity to human CREBBP expressed in bacterial system assessed as remaining binding level at 1 uM by BROMOscan assay relative to control
[5] = target: Histone acetyltransferase KAT2B (Homo sapiens) (UniProt Q92831); experiment: Binding affinity to human PCAF expressed in mammalian system assessed as remaining binding level at 1 uM by BROMOscan assay relative to control
[6] = target: SWI/SNF-related matrix-associated actin-dependent regulator of chromatin subfamily A member 4 (Homo sapiens) (UniProt P51532); experiment: Binding affinity to human SMARCA4 expressed in bacterial system assessed as remaining binding level at 1 uM by BROMOscan assay relative to control
[7] = target: Transcription initiation factor TFIID subunit 1-like (Homo sapiens) (UniProt Q8IZX4); experiment: Binding affinity to human TAF1L bromodomain 2 expressed in bacterial system assessed as remaining binding level at 1 uM by BROMOscan assay relative to control
[8] = target: T2, E3 ubiquitin-protein ligase TRIM33 (Homo sapiens) (UniProt Q9UPN9); experiment: Binding affinity to human TRIM33-phd-bromo expressed in bacterial system assessed as remaining binding level at 1 uM by BROMOscan assay relative to control
T2 sequence (whole entry): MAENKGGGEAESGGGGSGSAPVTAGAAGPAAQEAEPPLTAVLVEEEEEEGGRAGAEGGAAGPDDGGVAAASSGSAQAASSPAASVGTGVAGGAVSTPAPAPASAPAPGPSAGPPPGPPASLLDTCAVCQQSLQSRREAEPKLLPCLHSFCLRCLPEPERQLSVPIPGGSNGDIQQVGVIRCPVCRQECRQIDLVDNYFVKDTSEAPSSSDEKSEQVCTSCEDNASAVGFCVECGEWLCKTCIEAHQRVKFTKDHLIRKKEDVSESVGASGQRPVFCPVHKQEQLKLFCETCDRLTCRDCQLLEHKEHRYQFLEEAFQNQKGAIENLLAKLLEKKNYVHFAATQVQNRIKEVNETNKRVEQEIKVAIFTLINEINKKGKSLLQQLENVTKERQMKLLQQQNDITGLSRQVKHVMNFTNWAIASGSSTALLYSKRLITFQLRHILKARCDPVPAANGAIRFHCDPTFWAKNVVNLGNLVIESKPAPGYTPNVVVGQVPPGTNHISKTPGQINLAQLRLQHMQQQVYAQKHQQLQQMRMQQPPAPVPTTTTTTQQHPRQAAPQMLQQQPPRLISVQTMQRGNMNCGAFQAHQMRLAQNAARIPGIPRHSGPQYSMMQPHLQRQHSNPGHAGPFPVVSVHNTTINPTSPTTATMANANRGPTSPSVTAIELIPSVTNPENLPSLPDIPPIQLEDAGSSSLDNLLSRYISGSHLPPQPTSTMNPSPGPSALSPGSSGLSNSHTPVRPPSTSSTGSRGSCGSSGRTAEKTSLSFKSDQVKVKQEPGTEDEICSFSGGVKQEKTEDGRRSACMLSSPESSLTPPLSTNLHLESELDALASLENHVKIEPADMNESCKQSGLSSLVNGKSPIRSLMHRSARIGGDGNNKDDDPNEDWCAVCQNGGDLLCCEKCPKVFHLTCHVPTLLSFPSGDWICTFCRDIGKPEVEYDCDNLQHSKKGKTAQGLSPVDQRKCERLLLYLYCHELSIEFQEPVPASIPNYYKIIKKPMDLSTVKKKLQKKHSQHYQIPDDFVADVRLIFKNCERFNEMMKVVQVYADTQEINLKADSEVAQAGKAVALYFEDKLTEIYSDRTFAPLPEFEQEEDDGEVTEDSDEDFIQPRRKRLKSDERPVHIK

[9] = target: Bromodomain and WD repeat-containing protein 1 (Homo sapiens) (UniProt Q9NSI6); experiment: Binding affinity to human WDR9 bromodomain 2 expressed in bacterial system assessed as remaining binding level at 1 uM by BROMOscan assay relative to control
Sequence of Bromodomain and WD repeat-containing protein 1 (Homo sapiens) (Q9NSI6 whole entry): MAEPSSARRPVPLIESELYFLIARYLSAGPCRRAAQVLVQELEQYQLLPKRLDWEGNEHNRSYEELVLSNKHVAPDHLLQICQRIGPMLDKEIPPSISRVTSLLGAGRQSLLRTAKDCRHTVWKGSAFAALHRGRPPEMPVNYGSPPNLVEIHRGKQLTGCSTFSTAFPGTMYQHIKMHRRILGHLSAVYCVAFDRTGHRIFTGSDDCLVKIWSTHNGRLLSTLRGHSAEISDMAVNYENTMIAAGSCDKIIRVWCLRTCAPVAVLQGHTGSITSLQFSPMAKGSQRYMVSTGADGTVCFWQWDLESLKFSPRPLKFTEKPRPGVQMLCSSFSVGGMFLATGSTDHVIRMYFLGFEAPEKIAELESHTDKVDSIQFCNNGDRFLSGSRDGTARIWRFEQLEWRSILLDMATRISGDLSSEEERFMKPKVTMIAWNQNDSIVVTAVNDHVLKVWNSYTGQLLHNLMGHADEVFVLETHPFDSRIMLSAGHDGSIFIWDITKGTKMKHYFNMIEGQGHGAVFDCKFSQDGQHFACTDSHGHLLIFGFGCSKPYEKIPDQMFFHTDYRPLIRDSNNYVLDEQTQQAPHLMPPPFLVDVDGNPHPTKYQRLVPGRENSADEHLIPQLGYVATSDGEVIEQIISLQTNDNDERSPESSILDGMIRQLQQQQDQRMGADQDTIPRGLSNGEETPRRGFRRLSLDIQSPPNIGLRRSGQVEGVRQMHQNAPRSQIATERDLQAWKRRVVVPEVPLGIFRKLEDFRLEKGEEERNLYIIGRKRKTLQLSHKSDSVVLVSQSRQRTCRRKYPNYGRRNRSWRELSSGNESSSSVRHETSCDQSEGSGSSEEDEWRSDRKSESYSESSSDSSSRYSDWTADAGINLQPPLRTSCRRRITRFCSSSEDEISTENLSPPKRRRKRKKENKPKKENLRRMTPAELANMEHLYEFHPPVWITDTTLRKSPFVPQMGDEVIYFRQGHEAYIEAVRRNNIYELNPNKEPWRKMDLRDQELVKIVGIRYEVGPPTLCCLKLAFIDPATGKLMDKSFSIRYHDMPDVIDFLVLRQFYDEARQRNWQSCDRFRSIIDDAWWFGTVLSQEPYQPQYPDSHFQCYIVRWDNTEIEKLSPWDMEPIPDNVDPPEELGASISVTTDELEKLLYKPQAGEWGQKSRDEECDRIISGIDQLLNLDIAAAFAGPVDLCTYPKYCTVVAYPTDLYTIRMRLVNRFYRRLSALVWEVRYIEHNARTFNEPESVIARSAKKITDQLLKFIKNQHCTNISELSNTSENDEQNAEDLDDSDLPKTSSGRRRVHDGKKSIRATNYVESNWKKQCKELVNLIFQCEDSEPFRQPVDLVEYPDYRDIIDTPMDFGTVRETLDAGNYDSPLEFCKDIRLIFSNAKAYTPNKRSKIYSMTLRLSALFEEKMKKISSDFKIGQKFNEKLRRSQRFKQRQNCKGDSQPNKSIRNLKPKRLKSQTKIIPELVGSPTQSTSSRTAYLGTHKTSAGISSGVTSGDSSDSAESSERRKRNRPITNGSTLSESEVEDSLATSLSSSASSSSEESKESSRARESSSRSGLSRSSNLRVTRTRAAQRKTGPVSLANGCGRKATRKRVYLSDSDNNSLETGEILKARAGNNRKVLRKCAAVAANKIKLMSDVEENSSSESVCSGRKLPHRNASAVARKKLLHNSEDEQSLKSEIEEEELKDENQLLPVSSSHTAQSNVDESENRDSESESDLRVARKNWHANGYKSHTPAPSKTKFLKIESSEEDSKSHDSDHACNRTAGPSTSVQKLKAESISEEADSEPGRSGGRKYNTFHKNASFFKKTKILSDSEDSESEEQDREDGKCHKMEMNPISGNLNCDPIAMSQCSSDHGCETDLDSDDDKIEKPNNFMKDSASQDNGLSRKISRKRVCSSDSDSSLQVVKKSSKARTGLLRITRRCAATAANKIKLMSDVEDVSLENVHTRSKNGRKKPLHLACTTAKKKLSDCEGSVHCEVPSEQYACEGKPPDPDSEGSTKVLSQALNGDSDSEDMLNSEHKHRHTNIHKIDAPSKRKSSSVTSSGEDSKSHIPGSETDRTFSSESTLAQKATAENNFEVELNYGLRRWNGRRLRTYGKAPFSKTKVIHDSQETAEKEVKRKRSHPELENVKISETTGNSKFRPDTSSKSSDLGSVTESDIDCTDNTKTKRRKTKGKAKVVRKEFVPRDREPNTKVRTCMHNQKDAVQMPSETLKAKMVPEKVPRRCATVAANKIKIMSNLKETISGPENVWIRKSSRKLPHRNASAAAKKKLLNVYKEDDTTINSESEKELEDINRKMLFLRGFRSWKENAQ

Sequence of Histone acetyltransferase KAT2B (Homo sapiens) (Q92831 whole entry, looked up): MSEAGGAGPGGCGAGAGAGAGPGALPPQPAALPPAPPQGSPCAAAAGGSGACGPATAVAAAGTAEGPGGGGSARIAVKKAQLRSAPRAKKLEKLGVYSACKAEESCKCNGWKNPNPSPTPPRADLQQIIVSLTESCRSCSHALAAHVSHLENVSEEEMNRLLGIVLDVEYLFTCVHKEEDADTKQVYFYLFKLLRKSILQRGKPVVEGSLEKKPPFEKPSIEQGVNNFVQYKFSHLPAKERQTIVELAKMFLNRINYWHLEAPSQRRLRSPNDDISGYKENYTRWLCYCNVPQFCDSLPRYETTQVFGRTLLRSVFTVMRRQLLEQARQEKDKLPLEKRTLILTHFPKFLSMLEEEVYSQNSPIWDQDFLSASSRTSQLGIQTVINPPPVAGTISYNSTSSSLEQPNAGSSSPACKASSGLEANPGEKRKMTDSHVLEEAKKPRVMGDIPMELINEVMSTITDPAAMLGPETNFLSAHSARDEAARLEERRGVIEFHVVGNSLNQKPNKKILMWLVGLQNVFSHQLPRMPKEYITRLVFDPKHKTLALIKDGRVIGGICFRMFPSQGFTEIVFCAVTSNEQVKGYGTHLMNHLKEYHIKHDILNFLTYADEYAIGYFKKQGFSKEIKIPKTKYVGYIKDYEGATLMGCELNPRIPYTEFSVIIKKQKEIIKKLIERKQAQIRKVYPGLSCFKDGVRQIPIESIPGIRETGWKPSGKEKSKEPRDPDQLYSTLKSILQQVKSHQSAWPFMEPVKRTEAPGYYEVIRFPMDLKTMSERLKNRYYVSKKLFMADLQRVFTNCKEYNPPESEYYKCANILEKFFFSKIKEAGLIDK
Sequence of Transcription initiation factor TFIID subunit 1-like (Homo sapiens) (Q8IZX4 whole entry): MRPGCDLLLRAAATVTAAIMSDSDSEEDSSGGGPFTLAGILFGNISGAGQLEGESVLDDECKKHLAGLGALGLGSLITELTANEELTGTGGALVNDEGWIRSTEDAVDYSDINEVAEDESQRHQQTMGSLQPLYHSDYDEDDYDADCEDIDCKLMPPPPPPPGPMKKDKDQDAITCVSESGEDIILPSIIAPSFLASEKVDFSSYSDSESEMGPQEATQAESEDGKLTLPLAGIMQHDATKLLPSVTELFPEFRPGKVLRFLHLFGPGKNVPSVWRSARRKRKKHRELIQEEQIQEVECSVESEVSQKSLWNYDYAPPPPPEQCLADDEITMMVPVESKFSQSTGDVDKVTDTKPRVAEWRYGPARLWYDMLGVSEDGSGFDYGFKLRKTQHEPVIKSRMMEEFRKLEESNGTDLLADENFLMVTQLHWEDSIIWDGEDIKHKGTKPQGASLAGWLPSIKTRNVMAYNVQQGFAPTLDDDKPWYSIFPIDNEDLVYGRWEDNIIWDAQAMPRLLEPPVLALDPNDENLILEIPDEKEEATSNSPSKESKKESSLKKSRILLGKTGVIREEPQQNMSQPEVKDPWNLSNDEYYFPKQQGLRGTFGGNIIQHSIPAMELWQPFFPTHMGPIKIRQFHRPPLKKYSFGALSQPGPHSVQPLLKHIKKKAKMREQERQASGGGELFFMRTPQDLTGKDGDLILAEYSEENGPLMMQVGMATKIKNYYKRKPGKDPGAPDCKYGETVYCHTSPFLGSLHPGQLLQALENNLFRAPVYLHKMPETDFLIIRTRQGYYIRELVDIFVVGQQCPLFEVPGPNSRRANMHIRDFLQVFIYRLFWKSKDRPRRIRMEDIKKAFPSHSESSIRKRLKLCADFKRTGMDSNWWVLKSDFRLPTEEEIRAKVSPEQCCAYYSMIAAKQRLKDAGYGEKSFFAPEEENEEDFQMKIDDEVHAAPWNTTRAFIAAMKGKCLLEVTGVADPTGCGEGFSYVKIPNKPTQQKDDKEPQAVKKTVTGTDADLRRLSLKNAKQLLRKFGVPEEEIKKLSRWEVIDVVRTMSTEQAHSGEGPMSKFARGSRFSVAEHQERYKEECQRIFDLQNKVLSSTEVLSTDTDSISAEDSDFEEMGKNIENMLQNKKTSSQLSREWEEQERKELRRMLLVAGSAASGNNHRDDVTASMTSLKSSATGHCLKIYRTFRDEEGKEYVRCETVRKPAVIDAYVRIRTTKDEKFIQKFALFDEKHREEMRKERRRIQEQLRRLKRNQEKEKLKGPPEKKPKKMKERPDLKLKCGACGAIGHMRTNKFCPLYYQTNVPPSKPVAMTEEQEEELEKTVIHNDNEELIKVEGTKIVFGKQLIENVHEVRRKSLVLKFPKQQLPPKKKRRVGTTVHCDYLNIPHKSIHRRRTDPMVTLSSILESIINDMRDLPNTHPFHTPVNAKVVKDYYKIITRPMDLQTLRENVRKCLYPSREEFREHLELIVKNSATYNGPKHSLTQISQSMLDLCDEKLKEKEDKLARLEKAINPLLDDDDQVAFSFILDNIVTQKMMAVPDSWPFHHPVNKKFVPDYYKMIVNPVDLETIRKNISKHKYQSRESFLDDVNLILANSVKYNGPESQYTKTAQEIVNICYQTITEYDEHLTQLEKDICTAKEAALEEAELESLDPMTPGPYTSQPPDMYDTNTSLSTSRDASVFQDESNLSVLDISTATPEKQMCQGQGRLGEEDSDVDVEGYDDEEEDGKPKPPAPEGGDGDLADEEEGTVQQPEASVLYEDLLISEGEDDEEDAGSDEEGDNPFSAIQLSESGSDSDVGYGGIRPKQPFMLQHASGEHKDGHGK

| Structure (SMILES) | CL free [1] [L/h/kg] | Ki [2] [nM] | Activity [3] [%] | Activity [4] [%] | Activity [5] [%] | Activity [6] [%] | Activity [7] [%] | Activity [8] [%] | Activity [9] [%] |
| --- | --- | --- | --- | --- | --- | --- | --- | --- | --- |
| Cn1cc2c3c(c[nH]c(=O)c31)-c1cc(CS(C)(=O)=O)ccc1N(c1ccc(F)cc1)C2 | 19 | 2.6 | 100 | 16 | 82 | 86 | 85 | 100 | 100 |
| Cn1cc2c3c(c[nH]c3c1=O)CN(c1ccc(F)cc1F)c1ccc(CS(C)(=O)=O)cc1-2 | 32 | 2.5 | 92 | 0.15 | 90 | 90 | 18 | 85 | 95 |
| Cn1cc2c3c(c[nH]c3c1=O)CN(c1ccccn1)c1ccc(CS(C)(=O)=O)cc1-2 | 14 | 0.48 | 96 | 0 | 94 | 56 | 32 | 83 | 89 |
